Bridge positions count the residues as written; N and C are the ends. Square brackets hold non-standard residues; d marks the D form. Ends that are not written are not given here. Peptide text beside a SMILES is read from it. R8 = C=CCCCCCC[C@@](C)(N)C(=O)O; S5 = C=CCCC[C@](C)(N)C(=O)O
Columns and labels:
α-chymotrypsin = α-chymotrypsin (Bos taurus, UniProt P00766); assay: in vitro; conditions: for Degradation during protease exposure: 1 h
Protocol: Peptides in DMSO solution (1 mM) was mixed with α-chymotrypsin in PBS buffer (0.5 ng/μl) containing 2 mM CaCl2 and incubated at 37°C. The percentage of peptide was measured by HPLC at 0, 5, 10, 20, 30, and 60 min([Wang et al., 2020]).

rabbit red blood cells = conditions: 4% rabbit red blood cells, 1 h, 37°C
Protocol: Two hundred microliters of 4% rabbit red blood cells in a 96-well plate was added different concentrations of peptides. After 1 h of incubation at 37°C and following centrifugation, the release of hemoglobin was monitored by the absorbance at 450 nm of supernatant. Zero hemolysis was determined without adding any other reagents, and 100% hemolysis was determined in 10% Triton X-100. Hemolysis percentage hemolysis was calculated as: (Apeptide − Ablank)/(ATriton − Ablank) × 100%. All hemolysis determinations were conducted in three repeated experiments ([Deng et al., 2015]).

[1] = Circular dichroism spectroscopy, percent helicity; type: physicochemical; conditions: CD, TFE/water (1:1), 0.1 mg/ml, 20°C
Protocol: Peptides were dissolved in TFE/water (1:1, v/v, 0.1 mg/ml). CD data were recorded in 10-mm path length, a quartz cell at 20°C. Percent helicity was calculated by the following equation ([Wang et al., 2006]). α=[θ]222/[θ]max×100% [θ]222 is the molar ellipticity of 222 nm; [θ]max = (−44,000 + 250T) (1 − k/n), where k = 4, n is the numbers of amino acids, and T = 20°C.

U87 = conditions: read-out: IC50 U87; CCK-8, 48 h
Protocol: (§1) MCF-7, HUH-7, U87, and Nthy-ori 3-1 cell lines were used to test cell viability. All the cell lines were cultured in a humid environment at 37°C with 5% CO2. The anticancer activity of B1 and its derivatives were evaluated by the CCK-8 reagent. All peptides tested were dissolved in DMSO and finally added to each well in 1‰ volume. The cells were seeded in a 96-well plate at a number of 5 × 10^3 cells per well. After overnight incubation, they were administered with different concentrations of peptides. Ten percent CCK-8 solution without FBS was added to each well after 48 h. After incubation at 37°C for 30 min, the optical density (OD) at 450 nm was recorded with a microplate reader ([Deng et al., 2015]).

HUH-7 = conditions: read-out: IC50 HUH-7; CCK-8, 48 h
Protocol: as §1

MCF-7 = conditions: read-out: IC50 MCF-7; CCK-8, 48 h
Protocol: as §1

[2] = On-resin ring-closing olefin metathesis (all-hydrocarbon stapling, S5/S5 i,i+4 or R8/S5 i,i+7), first-generation Grubbs catalyst (3 equiv); then Fmoc removal, TFA cleavage, RP-HPLC; conditions: the molecule shown is the open-chain precursor, 21-membered ring, 1,2-dichloroethane (dry), 25.0 °C, 4.0 h
[3] = α-chymotrypsin (0.5 ng/μl) in PBS buffer

Compound | half-life (α-chymotrypsin; [3]) [min] | HC50, half hemolysis concentration (rabbit red blood cells) [µM] | Helicity (%) [1] [%] | IC50 (U87) [µM] | IC50 (HUH-7) [µM] | IC50 (MCF-7) [µM] | ring closure, overall yield [2] [%] | Degradation during protease exposure (α-chymotrypsin; α-chymotrypsin) | half-life (α-chymotrypsin; α-chymotrypsin) [min]
CC(C)C[C@H](NC(=O)[C@H](CCCCN)NC(=O)[C@]1(C)CCCC=CCCCCCC[C@@](C)(NC(=O)[C@@H](N)C(C)C)C(=O)N[C@@H](CCCNC(=N)N)C(=O)N[C@@H](Cc2ccccc2)C(=O)N[C@@H](CCCCN)C(=O)N[C@@H](CCCCN)C(=O)N[C@@H](Cc2ccccc2)C(=O)N[C@@H](Cc2ccccc2)C(=O)N1)C(=O)N[C@@H](CCCCN)C(=O)N[C@@H](CCCCN)C(=O)N[C@@H](CC(C)C)C(=O)N[C@H](C(N)=O)C(C)C [B1-L-5, VR8RFKKFFS5KLKKLV-NH2] (H-V[R8]RFKKFF[S5]KLKKLV-NH2; staple 2-9; N-terminus assumed) | > 60 | >80 | 24.8 | 14.3 ± 2.35 | 13.8 ± 1.53 | 14 ± 0.73 | – | – | –
C=CCCC[C@](C)(NC(=O)[C@H](Cc1ccccc1)NC(=O)[C@H](Cc1ccccc1)NC(=O)[C@H](CCCCNC(=O)OC(C)(C)C)NC(=O)[C@](C)(CCCC=C)NC(=O)[C@H](Cc1ccccc1)NC(=O)[C@H](CCCNC(=N)NS(=O)(=O)c1c(C)c(C)c2c(c1C)CC(C)(C)O2)NC(=O)[C@H](CCCCNC(=O)OC(C)(C)C)NC(=O)[C@@H](NC(=O)OCC1c2ccccc2-c2ccccc21)C(C)C)C(=O)N[C@@H](CCCCNC(=O)OC(C)(C)C)C(=O)N[C@@H](CC(C)C)C(=O)N[C@@H](CCCCNC(=O)OC(C)(C)C)C(=O)N[C@@H](CCCCNC(=O)OC(C)(C)C)C(=O)N[C@@H](CC(C)C)C(=O)N[C@H](C(N)=O)C(C)C | – | – | – | – | – | – | 64 | – | –
CC(C)C[C@H](NC(=O)[C@H](CCCCN)NC(=O)[C@]1(C)CCCC=CCCCCCC[C@@](C)(NC(=O)[C@H](Cc2ccccc2)NC(=O)[C@H](CCCNC(=N)N)NC(=O)[C@H](CCCCN)NC(=O)[C@@H](N)C(C)C)C(=O)N[C@@H](CCCCN)C(=O)N[C@@H](Cc2ccccc2)C(=O)N[C@@H](Cc2ccccc2)C(=O)N[C@@H](CCCNC(=N)N)C(=O)N[C@@H](CCCCN)C(=O)N[C@@H](CC(C)C)C(=O)N1)C(=O)N[C@H](C(N)=O)C(C)C [B1-L-6, VKRFR8KFFRKLS5KLV-NH2] (H-VKRF[R8]KFFRKL[S5]KLV-NH2; staple 5-12; N-terminus assumed) | 55.3 | >80 | 39.8 | 4.58 ± 0.93 | 5.89 ± 0.43 | 5.15 ± 1.04 | – | – | –
C=CCCC[C@](C)(NC(=O)[C@H](CCCNC(=N)NS(=O)(=O)c1c(C)c(C)c2c(c1C)CC(C)(C)O2)NC(=O)[C@H](Cc1ccccc1)NC(=O)[C@H](Cc1ccccc1)NC(=O)[C@](C)(CCCC=C)NC(=O)[C@H](CCCCNC(=O)OC(C)(C)C)NC(=O)[C@H](Cc1ccccc1)NC(=O)[C@H](CCCNC(=N)NS(=O)(=O)c1c(C)c(C)c2c(c1C)CC(C)(C)O2)NC(=O)[C@H](CCCCNC(=O)OC(C)(C)C)NC(=O)[C@@H](NC(=O)OCC1c2ccccc2-c2ccccc21)C(C)C)C(=O)N[C@@H](CC(C)C)C(=O)N[C@@H](CCCCNC(=O)OC(C)(C)C)C(=O)N[C@@H](CCCCNC(=O)OC(C)(C)C)C(=O)N[C@@H](CC(C)C)C(=O)N[C@H](C(N)=O)C(C)C | – | – | – | – | – | – | 66 | – | –
CC(C)C[C@H](NC(=O)[C@H](CCCCN)NC(=O)[C@]1(C)CCCC=CCCC[C@](C)(NC(=O)[C@H](Cc2ccccc2)NC(=O)[C@H](CCCNC(=N)N)NC(=O)[C@H](CCCCN)NC(=O)[C@@H](N)C(C)C)C(=O)N[C@@H](CCCCN)C(=O)N[C@@H](Cc2ccccc2)C(=O)N[C@@H](Cc2ccccc2)C(=O)N1)C(=O)N[C@@H](CCCCN)C(=O)N[C@@H](CCCCN)C(=O)N[C@@H](CC(C)C)C(=O)N[C@H](C(N)=O)C(C)C [B1-L-2, VKRFS5KFFS5KLKKLV-NH2] (H-VKRF[S5]KFF[S5]KLKKLV-NH2; staple 5-9; N-terminus assumed) | > 60 | >80 | 35.5 | 8.86 ± 1.43 | 6.18 ± 0.63 | 6.59 ± 0.42 | – | – | –
VKRFKKFFRKLKKLV-NH2 [B1-Leu, VKRFKKFFRKLKKLV-NH2] | 8.5 | >80 | 23.5 | 16.2 ± 3.32 | 11.8 ± 0.72 | 13.4 ± 0.53 | – | completely degraded | –
CC(C)C[C@H](NC(=O)[C@H](CCCCN)NC(=O)[C@H](CCCNC(=N)N)NC(=O)[C@H](Cc1ccccc1)NC(=O)[C@H](Cc1ccccc1)NC(=O)[C@]1(C)CCC/C=C\CCC[C@](C)(NC(=O)[C@@H](N)C(C)C)C(=O)N[C@@H](CCCNC(=N)N)C(=O)N[C@@H](Cc2ccccc2)C(=O)N[C@@H](CCCCN)C(=O)N1)C(=O)N[C@@H](CCCCN)C(=O)N[C@@H](CCCCN)C(=O)N[C@@H](CC(C)C)C(=O)N[C@H](C(N)=O)C(C)C [B1-L-1, VS5RFKS5FFRKLKKLV-NH2] (H-V[S5]RFK[S5]FFRKLKKLV-NH2; staple (Z) 2-6) | – | – | 47.2 | – | – | – | – | – | > 60
CC(C)C[C@H](NC(=O)[C@H](CCCCN)NC(=O)[C@H](CCCCN)NC(=O)[C@H](CC(C)C)NC(=O)[C@]1(C)CCCC=CCCC[C@](C)(NC(=O)[C@H](CCCCN)NC(=O)[C@H](Cc2ccccc2)NC(=O)[C@H](CCCNC(=N)N)NC(=O)[C@H](CCCCN)NC(=O)[C@@H](N)C(C)C)C(=O)N[C@@H](Cc2ccccc2)C(=O)N[C@@H](Cc2ccccc2)C(=O)N[C@@H](CCCNC(=N)N)C(=O)N1)C(=O)N[C@H](C(N)=O)C(C)C [B1-L-3, VKRFKS5FFRS5LKKLV-NH2] (H-VKRFK[S5]FFR[S5]LKKLV-NH2; staple 6-10; N-terminus assumed) | > 60 | >80 | 37 | 3.59 ± 1.2 | 5.96 ± 0.54 | 5.48 ± 0.89 | – | – | –
VKRFKKFFRKLKKSV-NH2 [B1, VKRFKKFFRKLKKSV-NH2, reference compound] | 8.3 | >80 | 8.9 | > 50 | > 50 | > 50 | – | completely degraded | –
CC(C)C[C@@H]1NC(=O)[C@H](CCCCN)NC(=O)[C@H](CCCNC(=N)N)NC(=O)[C@H](Cc2ccccc2)NC(=O)[C@H](Cc2ccccc2)NC(=O)[C@](C)(NC(=O)[C@H](CCCCN)NC(=O)[C@H](Cc2ccccc2)NC(=O)[C@H](CCCNC(=N)N)NC(=O)[C@H](CCCCN)NC(=O)[C@@H](N)C(C)C)CCCCCCC=CCCC[C@@](C)(C(=O)N[C@@H](CC(C)C)C(=O)N[C@H](C(N)=O)C(C)C)NC(=O)[C@H](CCCCN)NC1=O [B1-L-7, VKRFKR8FFRKLKS5LV-NH2] (H-VKRFK[R8]FFRKLK[S5]LV-NH2; staple 6-13; N-terminus assumed) | > 60 | >80 | 31.6 | 12.7 ± 1.63 | 7.49 ± 1.2 | 13.4 ± 1.22 | – | – | –
CC(C)C[C@@H]1NC(=O)[C@H](CCCCN)NC(=O)[C@@](C)(NC(=O)[C@H](Cc2ccccc2)NC(=O)[C@H](Cc2ccccc2)NC(=O)[C@H](CCCCN)NC(=O)[C@H](CCCCN)NC(=O)[C@H](Cc2ccccc2)NC(=O)[C@H](CCCNC(=N)N)NC(=O)[C@H](CCCCN)NC(=O)[C@@H](N)C(C)C)CCCC=CCCC[C@@](C)(C(=O)N[C@@H](CC(C)C)C(=O)N[C@H](C(N)=O)C(C)C)NC(=O)[C@H](CCCCN)NC1=O [B1-L-4, VKRFKKFFS5KLKS5LV-NH2] (H-VKRFKKFF[S5]KLK[S5]LV-NH2; staple 9-13; N-terminus assumed) | > 60 | >80 | 35 | 17.9 ± 3.23 | 13.4 ± 1.92 | 15.2 ± 1.02 | – | – | –

Reference: PMC9021566, “Design, Synthesis, and Antitumor Activity Study of All-Hydrocarbon-Stapled B1-Leu Peptides” (Frontiers in Chemistry, 2022)
